Legend:
[1] = species on record: Rattus norvegicus; experiment: animal or person; type: functional; settings: Wistar, Liver, po
[2] = species on record: Rattus norvegicus; experiment: animal or person; type: functional; settings: Wistar, po, 3 h
[3] = biological target: T1, Aromatase (Homo sapiens, UniProt P11511)
T1 sequence (P11511 whole entry): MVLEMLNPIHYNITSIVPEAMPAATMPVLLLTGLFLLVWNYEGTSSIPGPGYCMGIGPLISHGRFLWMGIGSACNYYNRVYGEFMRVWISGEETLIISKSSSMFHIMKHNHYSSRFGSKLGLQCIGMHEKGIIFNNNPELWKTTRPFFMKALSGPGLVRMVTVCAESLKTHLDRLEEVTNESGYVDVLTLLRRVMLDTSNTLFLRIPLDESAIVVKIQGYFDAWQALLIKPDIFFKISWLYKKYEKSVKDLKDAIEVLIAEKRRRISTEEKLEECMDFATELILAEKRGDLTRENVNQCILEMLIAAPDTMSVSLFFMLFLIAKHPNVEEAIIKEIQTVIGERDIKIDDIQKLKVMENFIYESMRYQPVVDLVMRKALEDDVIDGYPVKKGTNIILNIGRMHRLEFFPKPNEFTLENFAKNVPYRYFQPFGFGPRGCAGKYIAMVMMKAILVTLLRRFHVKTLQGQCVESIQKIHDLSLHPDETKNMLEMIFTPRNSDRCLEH

IC50 [3]: 0.12 nM
Structure (SMILES): N#Cc1ccc(N(Cc2ccc(Br)cc2)n2cnnc2)cc1
inhibition in vivo at 10 mg/kg [1]: ≥ 98%
inhibition in vivo at 10 mg/kg [2]: 70%

— ChEMBL document CHEMBL3621110, “Discovery and Development of the Aryl O-Sulfamate Pharmacophore for Oncology and Women's Health” (J Med Chem, 2015)
